Reference: article PMC8073686, “Characterization of Subtype Selective Cannabinoid CB2 Receptor Agonists as Potential Anti-Inflammatory Agents” (Pharmaceuticals, 2021)

Key:
CB2 = target: T1, CB2 (Homo sapiens, UniProt P34972); test: [35S]GTPγS binding assay (G-protein coupling), CB2 containing HEK293T cell membrane; assay type: biochemical; conditions: stimulation of [35S]GTPγS binding; mean ± S.D.
T1 construct: expressed in transfected cells; host or cells: HEK293T cells, calcium phosphate transfection, membrane preparation
Procedure: We also examined if the compounds can induce G-protein coupling and act as CB2 agonists. Three compounds, ABK5-1, ABK5-2, and ABK5-6, were subjected to [^35S]GTPγS binding assays. Increasing concentrations, from 1 nM to 10 μM of the test compounds, were incubated with CB2 containing HEK293T cell membrane and [^35S]GTPγS, which binds to Gi/o in the membrane upon CB2 activation and G-protein coupling. All three compounds stimulated dose-dependent increases of specific [^35S]GTPγS binding (Figure 3).
In the experiment, 1 × 10^6 HEK293T cells were seeded in a 10-cm cell culture dish and cultured for 24 h. Cells were transfected with CB1 or CB2 using the calcium phosphate method. Approximately one day after transfection, cells were harvested and centrifuged at 4 °C for 5 min at 500× g. The pellet was washed with phosphate buffered saline (PBS) twice and resuspended in PBS containing 1% protease-inhibitor cocktail (Sigma-Aldrich, St. Louis, MO, USA) consisting of 104 mM 4-(2-aminoethyl) benzene sulfonyl fluoride hydrochloride (AEBSF), 80 μM apronitin, 4 mM bestatin, 1.64 mM E-64, 2 mM leupeptin, 1.5 mM pepstatin A. Then the cells were subjected to nitrogen cavitation under 750 psi for 5 min using a Parr cell disruption bomb. The lysate was centrifuged at 500× g for 10 min at 4 °C and the supernatant was spun at 116,000× g for 45 min at 4 °C. The pellet, consisting of the cell membrane expressing CB1 or CB2, was resuspended in TME buffer solution (25 mM Tris-HCl, 5 mM MgCl2, and 1 mM EDTA, pH 7.4) with 7% (w/v) sucrose/TME buffer. The concentration of the membrane protein was determined by the Bradford assay (Bradford, 1976).
GTPγS binding assay buffer ([…], pH 7.4, 3 mM MgCl2, 0.2 mM EGTA, and 100 mM NaCl) membrane protein, 1 nM to 10 μM of the test compounds, 0.1 nM [^35S] GTPγS (1250 Ci/mmol; PerkinElmer Life Sciences, Waltham, MA, USA), 0.1% fatty acid free BSA (w/v), 10 μM guanosine diphosphate (GDP) and GTPγS was incubated for 1 h at 30 °C with shaking. […] A Beckman Coulter 6500 liquid scintillation counter was used to measure the radioactivity of the samples. […]

IL-1β mRNA in BV-2 cells = test: LPS-induced IL-1β mRNA in BV-2 cells; assay type: cell-based, murine; conditions: 10 μM, 6 h LPS stimulation
Procedure: (§1) We stimulated BV-2 by lipopolysaccharide (LPS) and confirmed induction of pro-inflammatory cytokine IL-1β and IL-6 (data not shown). […] These effects were also confirmed by cytokine protein levels.
(§2) Figure 6 Effect of ABK5-1 on lipopolysaccharide (LPS)-induced cytokine production in microglia. BV-2 cells were pretreated with DMSO (<0.1%) or 1 or 10 μM ABK5-1 and stimulated with LPS. (A) mRNA levels of IL-1β and IL-6 after 6 h of LPS stimulation. (B) IL-1β protein concentration in the cell culture medium after 24 h of LPS stimulation. U.D. indicates under detection limit. (C) IL-6 protein concentration in the cell culture medium after 24 h of LPS stimulation. (D) Viability of BV-2 cells after ABK5-1 10 μM treatment. Results are indicated as the mean ± S.D. of three independent assays performed for each concentration. One-way ANOVA plus Dunnett’s post-hoc test were used and **** p < 0.0001 (versus reference). TEXT PRINTED IN THE PICTURE: (B) ABK5-1: IL-1β (pg/mL): U.D. (10 μM; LPS +)

IL-6 mRNA in BV-2 cells = test: LPS-induced IL-6 mRNA in BV-2 cells; assay type: cell-based, murine; conditions: 10 μM, 6 h LPS stimulation
Procedure: as §1, §2

[1] = test system: IL-1β production in BV-2 cells; test: LPS-induced IL-1β protein in BV-2 culture medium; assay type: cell-based, murine; conditions: 10 μM
Procedure: as §1, §2

[2] = test system: IL-6 production in BV-2 cells; test: LPS-induced IL-6 protein in BV-2 culture medium; assay type: cell-based, murine; conditions: 10 μM, 24 h LPS stimulation
Procedure: as §1, §2

T1 sequence (P34972 whole entry): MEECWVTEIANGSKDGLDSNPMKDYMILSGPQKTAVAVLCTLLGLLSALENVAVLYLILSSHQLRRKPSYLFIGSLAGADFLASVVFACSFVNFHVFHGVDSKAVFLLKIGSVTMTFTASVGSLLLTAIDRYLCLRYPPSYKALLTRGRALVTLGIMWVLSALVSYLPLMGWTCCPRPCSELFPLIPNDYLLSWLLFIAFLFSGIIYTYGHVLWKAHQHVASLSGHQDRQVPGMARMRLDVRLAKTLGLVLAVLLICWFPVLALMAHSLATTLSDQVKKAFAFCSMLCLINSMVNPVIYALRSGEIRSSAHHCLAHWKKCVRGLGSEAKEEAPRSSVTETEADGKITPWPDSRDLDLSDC

EC50 (CB2)	Compound	decrease of IL-1β mRNA (IL-1β mRNA in BV-2 cells)	decrease of IL-6 mRNA (IL-6 mRNA in BV-2 cells)	IL-1β cytokine concentration in the culture medium (in words) ([1]; 24 h LPS stimulation)	IL-1β ([1]; LPS +, 24 h, U.D. = under detection limit)	decrease of IL-6 cytokine concentration in the culture medium [2]
11 ± 14 nM	CCOC(=O)c1ccccc1NC(=O)CN(c1ccc(C)cc1C)S(=O)(=O)c1ccccc1 [ABK5-1]	63%	48%	under the detection limit	U.D.	47%
24 ± 25 nM	CCOC(=O)c1ccccc1NC(=O)CN(c1c(C)cccc1C)S(=O)(=O)c1ccccc1 [ABK5-2]	–	–	–	–	–
